In US10350262B2, “MCJ agonists and uses therefor” (priority 2015, dated 2019):
Non-standard residues stand in square brackets, D forms with d. No end group written: not given here. Cha = N[C@@H](CC1CCCCC1)C(=O)O

Legend:
Molm13 cells [1] = assay: Viable cell number of Molm13 AML cells; format: cell-based; details: 3 days
MCF7/siMCJ cells = assay: Confocal microscopy for doxorubicin accumulation; format: cell-based, human; details: oligomycin 5 μM with doxorubicin 3 μM, 4 h; vs doxorubicin alone
Protocol: Confocal microscopy for doxorubicin accumulation. MCF7/siMCJ cells were seeded on BD Biocoat coverslips (BD Biosciences, Bedford, Mass.) the day before the treatment. At 20 h, oligomycin (5 μM) or medium was added to the cell. After 3 h, doxorubicin (3 μM) was added and cells were further incubated for 4 h. Cells were washed with PBS and fixed in 3.7% paraformaldehyde. […] For nuclear staining, DAPI (Molecular Probes, Eugene, Oreg.) was used. Cells were visualized by confocal microscopy (Zeiss LSM 510 META Confocal Laser Scanning Imaging System, Carl Ziess Microimaging Inc, Thronwood, N.Y.). The term: MCF7/siMCJ and siMCJ/MCF7 is used interchangeably herein. Experiments were performed to determine whether reducing mitochondrial respiration in cancer cells restores the cells' sensitivity to chemotherapeutic agents. […] MCF7/siMCJ cells were treated with doxorubicin alone or doxorubicin and oligomycin (an inhibitor of Complex V/ATP synthase) at a concentration of 5 μM for 4 h. Doxorubicin intrinsic fluorescence in the cells was viewed by confocal microscopy. The DAPI dye was used as a nuclear maker.

MCF7 cells = assay: Viable cell count of MCF7 cells (Trypan blue); format: cell-based, human; details: 25 μM, 2 days
From the text: (§1) FIG. 15A provides results of Western blot analysis for MCJ in MCF7 cells and MCF7/ADR (ADR) cells. Actin was used as loading control. […] Viable cells were counted 2 days later.
(§2) Cell Culture. MCF7 and MCF7/ADR cells were a kind gift from Dr. Ken Cowan (National Cancer Institute, Bethesda, Md.). MCF7/siMCJ cells were generated by stable transfection with a plasmid expressing a shRNA for MCJ (siMCJ) as described in Hatle, K. M., et al., Mol Cell Biol 27, 2952-2966 (2007). All cells were maintained at 37 C, 5% CO2 in RPMI-1640 (Life technologies, Inc., Gaithersburg, Md.) containing 5% FBS.
(§3) Cell count. Cells were trypsinized, washed, and resuspended in medium. Number of viable cells was measured by counting using Trypan blue dye to exclude dead cells (visualized as blue).
(§4) Doxorubicin and peptides treatment in vitro. Doxorubicin (Sigma-Aldrich) was used at 3 μM final concentration. The three different peptides described in the examples (SEQ ID NO: 2, 18 or 6) were resuspended at 10 mM stock concentration in PBS. The peptides were used a different concentration as indicated for each example (1, 10, or 50 μM). Cells were plated the day prior the treatment (18-20 h prior to the treatment). For treatments with peptides only, peptides were added to the plates at the indicated concentrations, and after 2 or 3 days (as indicated for each example) cells were trypsinized, resuspended, and counted. For the treatment with doxorubicin and peptides, cells were pretreated with the corresponding peptide for 4 h prior to adding doxorubicin.
MCF7 cells and MCF7/ADR cells were incubated (using standard procedures) for two days in media alone or in media that included different concentrations of the TAT-N-MCS-MTS polypeptide having the amino acid sequence set forth as: […]

Molm13 cells [2] = assay: Mitochondrial ROS (mROS) by PY1 staining, flow cytometry; format: cell-based; details: 22 h
Protocol: (§5) FIG. 17A-D provides graphs of results showing MCJ agonist inhibition of AML. FIG. 17A-B show results when Molm13 cells (10^4 cells) were incubated in the presence of medium, TAT-N-MCJ-mts peptide (TAT) (25 μM), MITO-N-MCJ peptide (25 μM), AC220 (2 nM) or the combination of the peptides with AC220. Numbers of viable cells was measured after 3 days. […] The percentage of live cells negative for TMRE (TMREneg) is shown. […] The percentage of live PY1^+ cells is shown.
(§6) Experiments were also performed to assess the effect of MCJ agonists on mitochondrial membrane potential by staining with the TMRE dye. Given the more modest effects observed for TAT-N-MCJ-mts (FIG. 17A-B), 50 μM of this peptide was used in the experiments. […] AML cells are sensitive to the levels of reactive oxygen species (ROS), which are primarily generated in mitochondria as a result of electron leakage from the ETC. It was previously shown that MCJ can interfere with the formation of ETC respiratory supercomplexes [Hatle, K., et al., (2013) Mol Cell boil 33:2302-2314] that are formed to facilitate electron transport between complexes and minimize electron leakage [see Acin-Perez, R. et al., (2008) Mol Cell 32:529-539 and Lapuente-Brun, E. et al., (2013) Science 340:1567-1570]. […] The effect of the MCJ agonists was already observed after 5 h of treatment. […]

Molm13 cells [3] = assay: Mitochondrial membrane potential by TMRE staining, flow cytometry; format: cell-based; details: 22 h
Protocol: as §5, §6

MCF7/ADR cells [4] = assay: Viable cell count of MCF7/ADR cells (Trypan blue); format: cell-based, human
Protocol: as §1
FIG. 16A-B provides graphs showing response to MCJ agonists. […] Cells were harvested 2 days later and viable cells were counted. […] Mice were harvested at day 4. The size of a tumor over time was determined by caliper measurements, and is represented as a percentage relative to the initial size prior to the treatment. p<0.05 as determined by a paired t-test.
as §2, §3, §4
MCF7/ADR cells were incubated (using standard procedures) for three days in media alone or in media plus three different MCJ based polypeptides each at a concentration of 50 μM in media. The cells of set one were incubated in media and served as a control set. The cells of set two were incubated in media that included a 50 μM concentration of a MCJ polypeptide without a targeting agent polypeptide. The amino acid sequence of the N-MCJ polypeptide without a targeting agent polypeptide was […] (SEQ ID NO:2). The cells of set three were incubated in media that included a 50 μM concentration of a TAT-N-MCJ polypeptide. The amino acid sequence of the TAT-N-MCJ polypeptide was: […] (SEQ ID NO:18). […]

MCF7/ADR cells [5] = assay: Seahorse MitoStress assay, oxygen consumption rate (OCR); format: cell-based, human
Protocol: FIG. 14A-C provides graphs showing effect of MCJ agonist polypeptides on OCR and respiratory capacity of cells. […] Cells pretreated with medium alone (medium), TAT-N-MCJ-mts peptide (TAT peptide) (50 μM) (FIG. 14A) or MITO-N-MCJ peptide (Mito peptide) (25 μM) (FIG. 14B) for the last 9 h prior to the MitoStress assay as described elsewhere herein. Standard flow chart for the treatments as recommended by the manufacturer (Seahorse Bioscience, Billerica, Mass.) was used: oligomycin (O), FCCP (F) and rotenone and antimycin (R+A). […] Oligomycin was replaced by vehicle (buffer) or MITO-N-MCJ peptide.
Human breast cancer cell lines MCF7 cells with siRNA-mediated knockdown of MCJ (MCF7/siMCJ cells) have increased Complex I activity. Experiments were performed to examine the effect of MCJ on mitochondrial respiration using the Seahorse X24 analyzer and the MitoStress assay (used in examples herein according to manufacturer's protocols) that measures mitochondrial oxygen consumption rate (OCR), a well-accepted proxy for mitochondrial respiration (Seahorse Bioscience, North Billerica, Mass.). […] In addition, maximum respiratory capacity (determined after addition of the mitochondrial uncoupler FCCP) was also drastically higher in MCF7/siMCJ cells (FIG. 12A). Moreover, Seahorse MitoStress analysis of OCR in primary mammary tumor cells from MMTV-Py mice [Guy, C.
The agonist polypeptides were tested to determine whether they would restore particular MCJ functions and the effect of the agonist polypeptides in mitochondrial respiration was examined. […] OCR was determined by the Seahorse analyzer in MCF7/ADR cells and MCF7/ADR cells that were pretreated with the TAT-N-MCJ-mts peptide for 9 h.
Assays were performed to examine the effect of MITO-N-MCJ peptide on mitochondrial respiration when added directly on cells ongoing Seahorse mito-stress analysis. In this case, OCR was first measured at the basal level and then either vehicle (Seahorse buffer) or the MITO-N-MCJ peptide was added in one of the ports from Seahorse. […]

MCF7/ADR cells [6] = assay: Bright field microscopy of MCF7/ADR cells; format: cell-based, human; details: 50 μM, two days; relative to medium only
Protocol: FIG. 3 provides photomicrographic images of MCF7/ADR cells that were incubated for two days in column (1) media alone; column (2) media that included a 50 μM concentration of an N-MCJ polypeptide (SEQ ID NO:2); column (3) media that included a 50 μM concentration of the TAT-N-MCJ polypeptide (SEQ ID NO:18); and column (4) media that included a 50 μM concentration of the TAT-N-MCJ-MTS polypeptide (SEQ ID NO:6).
Bright Field Microscopy. Live cells were imaged at an inverted bright field microscope (Leica Microsystems). 400× magnification was used.

[7] = 25 μM in combination with AC220 2 nM

Compound: CC(C)(C)c1cc(NC(=O)Nc2ccc(-c3cn4c(n3)sc3cc(OCCN5CCOCC5)ccc34)cc2)no1 [AC220, reference compound]
- viability (number of viable cells) (Molm13 cells [1]; AC220 2 nM): effective at inducing Molm13 cell death

Compound: CC[C@H]1/C=C/C=C/C[C@@H](C)[C@H](O)[C@@](C)(O)C(=O)[C@@H](C)[C@H](O)[C@@H](C)C(=O)[C@@H](C)[C@H](O)[C@@H](C)/C=C/C(=O)O[C@@H]2[C@H](C)[C@H](CC1)O[C@]1(CC[C@H](C)[C@H](C[C@@H](C)O)O1)[C@H]2C [oligomycin]
- doxorubicin accumulation (intrinsic fluorescence, nucleus) (MCF7/siMCJ cells): doxorubicin accumulation (in the nucleus) only in MCF7/siMCJ cells treated with doxorubicin and oligomycin

Compound: FxRFxKFxRFxKMAARGVIAPVGESLRYAEYL ([Cha]R[Cha]K[Cha]R[Cha]KMAARGVIAPVGESLRYAEYL) [MITO-N-MCJ, Fx is cyclohexylalanine]
- viability (number of viable cells) (Molm13 cells [1]; peptide 25 μM alone): profound effect on Molm13 cells, leading to substantial cell death
- cells refractory to AC220 (number of viable cells) (Molm13 cells [1]; peptide 25 μM in combination with AC220 2 nM): effectively eliminated this resistant group
- effect on viable cells (MCF7 cells): neither of the two MCJ agonists had an effect on MCF7 cells
- production of mROS (live PY1+ cells) (Molm13 cells [2]; [7]): clearly synergized with AC220 to cause a massive production of mROS
- production of mROS (live PY1+ cells) (Molm13 cells [2]; 25 μM): could induce the production of mROS
- mitochondrial membrane potential (TMRE negative live cells) (Molm13 cells [3]; [7]): the most remarkable effect
- mitochondrial membrane potential (TMRE negative live cells) (Molm13 cells [3]; 25 μM): caused a loss of mitochondrial membrane potential (TMRE negative cells) in a fraction of Molm13 cells
- expansion of cells (viable cells) (MCF7/ADR cells [4]; 25 μM, peptide by itself, 2 days): drastic effect in limiting the expansion of these resistant cells
- efficacy relative to the TAT-N-MCJ peptide (MCF7/ADR cells [4]; MITO-N-MCJ greater than TAT peptide): 2-3 times
- effect on OCR (MCF7/ADR cells [5]; 25 μM, pretreated 9 h, compared with TAT-N-MCJ-mts): even more pronounced
- mitochondrial respiration (OCR) (MCF7/ADR cells [5]; peptide added directly during the assay, OCR measured during 180 min, vs vehicle): marked reduction of mitochondrial respiration
- maximum respiratory capacity (after FCCP) (MCF7/ADR cells [5]; peptide added directly during the assay, vs vehicle only): severely compromised

Compound: MAARGVIAPVGESLRYAEYL (listed as Homo sapiens) [N-MCJ]
- proliferation / cells attached to the culture plate (photomicrographs) (MCF7/ADR cells [6]): did not affect proliferation of the cells

Compound: YGKKRRQRRGMAARGVIAPVGESLRYAEYL [TAT-N-MCJ]
- proliferation / cells attached to the culture plate (photomicrographs) (MCF7/ADR cells [6]): did not affect proliferation of the cells
- expansion of cells (viable cells) (MCF7/ADR cells [4]; control peptide lacking the mts): had no effect
